Experimental data published in patent US20230286973A1, “PROTEIN SECRETION INHIBITORS” (KEZAR LIFE SCIENCES, priority 2020, published 2023).
Where “and” joins values, the source holds several entries; their conditions need not be identical. Equal entries are not always repeated. Where two headings read alike, the source gives them in different places.

Assays:
[1] = tested on: PD1-ss+10aa/Gaussia Luciferase; test: Dox-Induced PD1-ss-Gluc Assay; assay type: cell-based; details: 24 hr Dox induction, 293FRT/TO cells, read-out: 24 hr Dox Inducible PD1ssGluc 293FRT/TO: Mean IC50
Outline: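 Doxycycline-induced expression of a PD1-ss+10aa/Gaussia luciferase reporter is measured in stable Flp-In 293 T-REx cells. Compound dilutions containing doxycycline are added one day after plating and incubated at 37 °C, 5% CO2. Values for unassigned stereocentres refer to stereoisomer mixtures.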

[2] = tested on: TNFα-FL/Gaussia Luciferase; test: Dox Induced TNFα-FL-Gluc Assay; assay type: cell-based; details: for IC50: 24 hr Dox induction, 293FRT/TO cells, read-out: 24 hr Dox Inducible TNFaFLGluc 293FRT/TO: Mean IC50; for 24 hr Dox Inducible TNFaFLGluc 293FRT/TO: TNF/PD1: ratio of TNFaFLGluc IC50 to PD1ssGluc IC50
Source text: (§1) Flp-In 293 T-REx™ cells were transfected with pcDNA™5/FRT/TO plasmid inserted with cDNA encoding Gaussia Luciferase fused to the 3′ end of cDNA encoding full length TNFα (amino acids 1-233). Transfected cells were selected for resistance to the selectable markers Hygromycin and Blasticidin to create a stable cell line that contained the TNFα-FL/Gaussia Luciferase cDNA insert whose expression was regulated under the T-REx™ system. The day before assay, cells were trypsinized and plated in 384-well tissue culture plates. The next day, compound dilutions in DMSO/media containing doxycycline were added to the wells and incubated at 37° C., 5% CO2.
(§2) For chemical structures that include one or more stereoisomers, but are illustrated without indicating stereochemistry, the assay data refers to a mixture of stereoisomers.

[3] = tested on: HER3-ss+4aa/Gaussia Luciferase; test: Dox-Induced Her3-ss-Gluc Assay; assay type: cell-based; details: 24 hr Dox induction, 293FRT/TO cells, read-out: 24 hr Dox Inducible Her3(ss + 4)Gluc 293FRT/TO: Mean IC50
Source text: as §1, with “HER3 signal sequence plus 4 amino” for “full length TNFα (amino”, “(N-[…]-C) (SEQ ID NO: 2).” for “1-233).”, “HER3-ss+4aa/Gaussia” for “TNFα-FL/Gaussia”
as §2

[4] = tested on: IL-2-FL/Gaussia Luciferase; test: Dox Induced IL2-FL-Gluc Assay; assay type: cell-based; details: for IC50: 24 hr Dox induction, 293FRT/TO cells, read-out: 24 hr Dox Inducible IL2FLGluc 293FRT/TO: Mean IC50; for 24 hr Dox Inducible IL2FLGluc 293FRT/TO: IL2/PD1: ratio of IL2FLGluc IC50 to PD1ssGluc IC50
Outline: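 Doxycycline induces an IL-2(1-153)–Gaussia luciferase fusion in a stable Flp-In 293 T-REx line. Compound exposure runs alongside induction at 37° C.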

[5] = tested on: multiple myeloma cell line NCI-H929; test: H929 Cell Viability Assay; assay type: cell-based, human; details: NCI-H929 cells, Celltiter-Glo
Outline: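 Viability is scored by CellTiter-Glo luminescence following a 48-hour treatment at 37° C. Data for structures shown without stereochemistry refer to stereoisomer mixtures.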

[6] = tested on: multiple myeloma cell line U266B1; test: U266 Cell Viability Assay; assay type: cell-based, human; details: Homo sapiens, U-266, 48 h, U266B1 cells, Celltiter-Glo
Outline: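 Viability is measured as luciferase signal from CellTiter-Glo following a 48-hour incubation with compound at 37° C. under 5% CO2. Where structures lack drawn stereochemistry, values refer to stereoisomer mixtures.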

[7] = Liver Microsome Stability Assay (rat); details: rat liver microsomes, with NADPH, 1.0 uM compound
Method: (§3) Stability of a compound was assessed in the presence of liver microsomes from various sources—mouse, rat, monkey and human liver microsomes. 1.0 uM compound, 0.4% DMSO in 0.1 M Potassium Phosphate with 1.0 mg/mL liver microsomes, were incubated at 37° C. with or without 1 mM NADPH. The samples were quenched at 0, and 30 minutes.

[8] = Liver Microsome Stability Assay (mouse); details: mouse liver microsomes, with NADPH, 1.0 uM compound
Method: as §3

[9] = Liver Microsome Stability Assay (human); details: human liver microsomes, with NADPH, 1.0 uM compound
Method: as §3

[10] = Liver Microsome Stability Assay (monkey); details: monkey liver microsomes, with NADPH, 1.0 uM compound
Method: as §3

[11] = '<=>' given where both are I.A.

| Compound | IC50 [1] [nM] | IC50 [2] [nM] | IC50 [3] [nM] | IC50 [4] [nM] | EC50 ([5]; Homo sapiens, NCI-H929, 48 h) [nM] | EC50 [6] [µM] | Liver Microsome Stability (Multiple Species): Rat - % Remaining after 30 min w/NADPH [7] | Liver Microsome Stability (Multiple Species): Mouse - % Remaining after 30 min w/NADPH [8] | Liver Microsome Stability (Multiple Species): Human - % Remaining after 30 min w/NADPH [9] | Liver Microsome Stability (Multiple Species): Monkey - % Remaining after 30 min w/NADPH [10] | IC50 ([1]; mean) | IC50 ([2]; mean) | IC50 ([3]; mean) | IC50 ([4]; mean) | EC50 ([5]; 48 hr) [nM] | 24 hr Dox Inducible TNFaFLGluc 293FRT/TO: TNF/PD1 [2] | 24 hr Dox Inducible IL2FLGluc 293FRT/TO: IL2/PD1 [4] | 24 hr Dox Inducible TNFaFLGluc 293FRT/TO: TNF/PD1 [2, 11] | 24 hr Dox Inducible IL2FLGluc 293FRT/TO: IL2/PD1 [4, 11] |
| --- | --- | --- | --- | --- | --- | --- | --- | --- | --- | --- | --- | --- | --- | --- | --- | --- | --- | --- | --- |
| O=C(Nc1nc([C@H]2CCCN2c2ccc(OC3CCOCC3)cc2)cs1)c1cccn1Cc1ccncc1 [Compound A1, (R)-1-(pyridin-4-ylmethyl)-N-(4-(1-(4-((tetrahydro-2H-pyran-4-yl)oxy)phenyl)pyrrolidin-2-yl)thiazol-2-yl)-1H-pyrrole-2-carboxamide] | 26.9 | 369 | 58.4 | 53.8 | 1230 | > 25 | 50% | 24.8% | 14.3% | 6.47% | – | – | – | – | – | 13.7 | 2 | – | – |
| O=C(Nc1nc([C@H]2CCCN2c2ccc(OC3COC3)cc2)cs1)c1cccn1Cc1ccncc1 [Compound A2, (R)-N-(4-(1-(4-(oxetan-3-yloxy)phenyl)pyrrolidin-2-yl)thiazol-2-yl)-1-(pyridin-4-ylmethyl)-1H-pyrrole-2-carboxamide] | 18.2 | 211 | 31.4 | 34 | 1340 | > 25 | 7.5% | 6.6% | 0.92% | 0.18% | – | – | – | – | – | 11.6 | 1.9 | – | – |
| O=C(Nc1nc([C@H]2CCCN2c2ccc(O[C@@H]3CCOC3)cc2)cs1)c1cccn1Cc1ccncc1 [Compound A3, 1-(pyridin-4-ylmethyl)-N-(4-((R)-1-(4-(((R)-tetrahydrofuran-3-yl)oxy)phenyl)pyrrolidin-2-yl)thiazol-2-yl)-1H-pyrrole-2-carboxamide] | 15.6 | 171 | 33.5 | 26 | 530 | > 25 | 20.1% | 9% | 2.33% | 0.62% | – | – | – | – | – | 11 | 1.7 | – | – |
| O=C(Nc1nc([C@H]2CCCN2c2ccc(O[C@H]3CCOC3)cc2)cs1)c1cccn1Cc1ccncc1 [Compound A4, 1-(pyridin-4-ylmethyl)-N-(4-((R)-1-(4-(((S)-tetrahydrofuran-3-yl)oxy)phenyl)pyrrolidin-2-yl)thiazol-2-yl)-1H-pyrrole-2-carboxamide] | 16 | 155 | 26.8 | 25.7 | 430 | > 25 | 15.4% | 9.36% | 4.21% | 0.36% | – | – | – | – | – | 9.69 | 1.6 | – | – |
| CC(C)Oc1ccc(N2CCC[C@@H]2c2csc(NC(=O)c3cccn3Cc3ccncc3)n2)cc1 [Compound A5, (R)-N-(4-(1-(4-isopropoxyphenyl)pyrrolidin-2-yl)thiazol-2-yl)-1-(pyridin-4-ylmethyl)-1H-pyrrole-2-carboxamide] | 14.7 | 87 | 25.8 | 22.7 | 448 | > 25 | 26.5% | 13% | 10.4% | 4.26% | – | – | – | – | – | 5.92 | 1.5 | – | – |

More lines, main results first:

| IC50 [1] [nM] | IC50 [2] [nM] | IC50 [3] [nM] | IC50 [4] [nM] | EC50 ([5]; Homo sapiens, NCI-H929, 48 h) [nM] | EC50 [6] [µM] | Liver Microsome Stability (Multiple Species): Rat - % Remaining after 30 min w/NADPH [7] | Liver Microsome Stability (Multiple Species): Mouse - % Remaining after 30 min w/NADPH [8] | Liver Microsome Stability (Multiple Species): Human - % Remaining after 30 min w/NADPH [9] | Liver Microsome Stability (Multiple Species): Monkey - % Remaining after 30 min w/NADPH [10] | IC50 ([1]; mean) | IC50 ([2]; mean) | IC50 ([3]; mean) | IC50 ([4]; mean) | EC50 ([5]; 48 hr) [nM] | Compound | 24 hr Dox Inducible TNFaFLGluc 293FRT/TO: TNF/PD1 [2] | 24 hr Dox Inducible IL2FLGluc 293FRT/TO: IL2/PD1 [4] | 24 hr Dox Inducible TNFaFLGluc 293FRT/TO: TNF/PD1 [2, 11] | 24 hr Dox Inducible IL2FLGluc 293FRT/TO: IL2/PD1 [4, 11] |
| --- | --- | --- | --- | --- | --- | --- | --- | --- | --- | --- | --- | --- | --- | --- | --- | --- | --- | --- | --- |
| 416 | > 25000 | 3580 | 4340 | > 25000 | > 25 | – | – | – | – | – | – | – | – | – | CCc1cccc2nc(/C=C/c3csc(NC(=O)c4cccn4Cc4ccncc4)n3)cn12 [Compound B79, (E)-N-(4-(2-(5-ethylimidazo[1,2-a]pyridin-2-yl)vinyl)thiazol-2-yl)-1-(pyridin-4-ylmethyl)-1H-pyrrole-2-carboxamide] | >60.1 | 10 | – | – |
| 372 | 7270 | 3140 | 5370 | 16200 | 19 | – | – | – | – | – | – | – | – | – | Cc1cn(C(C)C)nc1/C=C/c1csc(NC(=O)c2cccn2Cc2ccncc2)n1 [Compound B80, (E)-N-(4-(2-(1-isopropyl-4-methyl-1H-pyrazol-3-yl)vinyl)thiazol-2-yl)-1-(pyridin-4-ylmethyl)-1H-pyrrole-2-carboxamide] | 19.5 | 14 | – | – |
| 905 | 1670 | 2020 | 2170 | 6850 | 19.1 | – | 50.1% and 71.4% | 10.6% and 16.9% | 5.77% and 6.74% | – | – | – | – | – | Cc1cnn(C(C)C)c1/C=C/c1csc(NC(=O)c2cccn2Cc2ccnc(F)c2)n1 [Compound B84, (E)-1-((2-fluoropyridin-4-yl)methyl)-N-(4-(2-(1-isopropyl-4-methyl-1H-pyrazol-5-yl)vinyl)thiazol-2-yl)-1H-pyrrole-2-carboxamide] | 1.84 | 2.4 | – | – |
| – | – | – | – | > 23800 | > 25 | 3.87% and 7.05% | – | 8.71% and 7.07% | 2.55% and 1.11% | 2400 nM and 1590 nM | > 25000 nM and 17900 nM | 2410 nM and 2480 nM | 4510 nM and 3480 nM | 20300 | CO[C@H](CC#N)Cn1cccc1C(=O)Nc1nc([C@H]2CCCN2c2ccccc2)cs1 [Compound C108, 1-((R)-3-cyano-2-methoxypropyl)-N-(4-((R)-1-phenylpyrrolidin-2-yl)thiazol-2-yl)-1H-pyrrole-2-carboxamide] | – | – | > 10.4 and 11.3 | 1.9 and 2.2 |
